# According to patent US20260109707A1, “HETEROBIFUNCTIONAL COMPOUNDS AND METHODS OF TREATING DISEASE” (Halda Therapeutics OpCo. Inc., priority 2022, published 2026):
# Where two headings read alike, the source gives them in different places.
# Columns and labels:
# [1] = system: VCaP cells; experiment: Cellular growth inhibition assay for VCaP cells (CellTiter-Glo, 72 hours); type: cell-based, human
# Method in brief: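 Luminescent viability signal after 72 h of compound exposure gave GI50 values by four-parameter nonlinear regression. Compounds were added in 0.5% DMSO to cells plated 24 h earlier at 5000/well in DMEM containing 10% FBS.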
# [2] = system: T-Rex 293 cell line SC3 cells lacking increased expression of androgen receptor protein; experiment: Cellular growth inhibition assay, T-Rex 293 SC3 cells without doxycycline (CellTiter-Glo, 72 hours); type: cell-based; settings: T-Rex 293 cell line SC3 cells not exposed to doxycycline (lacking increased androgen receptor expression)
# Method in brief: (§1)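 Growth inhibition is measured in an inducible AR-expressing T-Rex 293 clone, SC3, cultured with or without 10 ng/mL doxycycline in hormone-depleted medium. Test compounds are applied for 72 hours. GI50 values derive from CellTiter-Glo 2.0 signal fitted by four-parameter regression.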
# [3] = system: T-Rex 293 cell line SC3 cells having increased expression of androgen receptor protein due to exposure to doxycycline; experiment: Cellular growth inhibition assay, T-Rex 293 SC3 cells with doxycycline (CellTiter-Glo, 72 hours); type: cell-based; settings: T-Rex 293 SC3 cells with increased androgen receptor expression due to doxycycline (10 ng/mL)
# Method in brief: as §1
Structure (SMILES),GI50 [1] [µM],GI50 [2] [µM],GI50 [3] [µM],"GI50 ([1]; Homo sapiens, VCaP, 72 h) [µM]",GI50 ([2]; 72 h) [µM],GI50 ([3]; 72 h) [µM]
Cc1sc2c(c1C)C(c1ccc(CCCC3CCCN(c4ccc(C(=O)N[C@H]5CC[C@H](Oc6ccc(C#N)c(Cl)c6)CC5)nn4)CC3)cn1)=N[C@@H](C)c1nnc(C)n1-2 (stereo partly drawn) [I-700],< 0.5,< 0.5,< 0.5,–,–,–
COC[C@@H]1N=C(c2ccc(N3CCC4(CC3)CCN(c3ccc(C(=O)N[C@H]5CC[C@H](Oc6ccc(C#N)c(Cl)c6)CC5)nn3)C4)cc2)c2c(sc(C)c2C)-n2c(C)nnc21 [I-566],–,–,–,< 0.5,< 0.5,< 0.5
Cc1sc2c(c1C)C(c1ccc(C3CC(N4CCN(c5ccc(C(=O)N[C@H]6CC[C@H](Oc7ccc(C#N)c(Cl)c7)CC6)nn5)CC4)C3)cc1)=N[C@@H](C)c1nnc(C)n1-2 (stereo partly drawn) [I-589],–,–,–,< 0.5,< 0.5,< 0.5
Cc1sc2c(c1C)C(c1ccc(N3CCC4(CCN(c5ccc(C(=O)N[C@H]6CC[C@H](Oc7ccc(C#N)c(Cl)c7)CC6)nn5)CC4)C3)cc1)=NC(C(F)(F)F)c1nnc(C)n1-2 (stereo partly drawn) [I-727],< 0.5,> 3,> 3,–,–,–
Cc1sc2c(c1C)C(c1cccc(OC3CC4(CCCN(c5ccc(C(=O)N[C@H]6CC[C@H](Oc7ccc(C#N)c(Cl)c7)CC6)nn5)C4)C3)c1)=N[C@@H](C)c1nnc(C)n1-2 (stereo partly drawn) [I-715],< 0.5,0.5 to 1.5,< 0.5,–,–,–
"Cc1sc2c(c1C)C(c1ccc(C3CCC4(CCN(c5ccc(C(=O)N[C@H]6CC[C@H](Oc7ccc(C#N)c(Cl)c7)CC6)nn5)C4)C3)cc1)=N[C@@H](C)c1nnc(C)n1-2 (stereo partly drawn) [I-823, N-[4-(3-chloro-4-cyano-phenoxy)cyclohexyl]-6-[8-[4-[(9S)-4,5,9,13-tetramethyl-3-thia-1,8,11,12-tetrazatricyclo[8.3.0.02,6]trideca-2(6),4,7,10,12-pentaen-7-yl]phenyl]-2-azaspiro[4.4]nonan-2-yl]pyridazine-3-carboxamide]",< 0.5,< 0.5,< 0.5,–,–,–
"COCC[C@@H]1N=C(c2ccc(C3CCC4(CC3)CCN(c3ccc(C(=O)N[C@H]5CC[C@H](Oc6ccc(C#N)c(Cl)c6)CC5)nn3)C4)cc2)c2c(sc(C)c2C)-n2c(C)nnc21 (single isomer, unassigned) [I-618]",< 0.5,< 0.5,< 0.5,–,–,–
Cc1sc2c(c1C)C(c1ccc(NCC3CC4(C3)CN(c3ncc(C(=O)N[C@H]5CC[C@H](Oc6ccc(C#N)c(Cl)c6)CC5)cn3)C4)cc1)=NC(Cc1ncco1)c1nnc(C)n1-2 (stereo partly drawn) [I-808],–,–,–,0.5 to 1.5,> 3,< 0.5
Cc1sc2c(c1C)C(c1ccc(C3CCC4(CC3)CCN(c3ccc(C(=O)N[C@H]5CC[C@H](Oc6ccc(C#N)c(Cl)c6)CC5)nn3)CC4)nc1)=N[C@@H](C)c1nnc(C)n1-2 [I-630],1.5 to 3,–,–,–,< 0.5,< 0.5
Cc1sc2c(c1C)C(c1ccc(C3CN(C4CCN(c5ccc(C(=O)N[C@H]6CC[C@H](Oc7ccc(C#N)c(Cl)c7)CC6)nn5)CC4)C3)cc1)=N[C@@H](C)c1nnc(C)n1-2 [I-560],–,–,–,1.5 to 3,< 0.5,< 0.5
CC[C@@H]1N=C(c2ccc(N3CCC(Cc4ccc(C(=O)N[C@H]5CC[C@H](Oc6ccc(C#N)c(Cl)c6)CC5)nn4)CC3)cc2)c2c(sc(C)c2C)-n2c(C)nnc21 [I-614],–,–,–,< 0.5,0.5 to 1.5,< 0.5
Cc1sc2c(c1C)C(c1ccc(CC3CN(C(C)(C)C4CCN(c5ccc(C(=O)N[C@H]6CC[C@H](Oc7ccc(C#N)c(Cl)c7)CC6)nn5)CC4)C3)cc1)=N[C@@H](C)c1nnc(C)n1-2 [I-640],–,–,–,< 0.5,> 3,< 0.5
Cc1sc2c(c1C)C(c1ccc(OC3CCC4(CCCN(c5ccc(C(=O)N[C@H]6CC[C@H](Oc7ccc(C#N)c(Cl)c7)CC6)nn5)C4)C3)cc1)=NC1(CC1)c1nnc(C)n1-2 (stereo partly drawn) [I-523],> 3,> 3,–,–,–,< 0.5
"Cc1sc2c(c1C)C(c1ccc(C3CCC4(CC3)CCN(c3ccc(C(=O)N[C@H]5CC[C@H](Oc6ccc(C#N)c(Cl)c6)CC5)nn3)C4)cc1)=N[C@@H](Cc1ncco1)c1nnc(C)n1-2 (stereo partly drawn) [I-824, N-((1r,4r)-4-(3-chloro-4-cyanophenoxy)cyclohexyl)-6-(8-(4-((S)-2,3,9-trimethyl-6-(oxazol-2-ylmethyl)-6H-thieno[3,2-f][1,2,4]triazolo[4,3-a][1,4]diazepin-4-yl)phenyl)-2-azaspiro[4.5]decan-2-yl)pyridazine-3-carboxamide]",< 0.5,< 0.5,< 0.5,–,–,–
Cc1sc2c(c1C)C(c1ccc(C3CCC4(CCN(c5ccc(C(=O)N[C@H]6CC[C@H](Oc7ccc(C#N)c(Cl)c7)CC6)nn5)CC4)C3)cc1)=NC(C(F)(F)F)c1nnc(C)n1-2 (stereo partly drawn) [I-761],< 0.5,> 3,> 3,–,–,–
Cc1sc2c(c1C)C(c1ccc(OC3CC4(CCCN(c5ccc(C(=O)N[C@H]6CC[C@H](Oc7ccc(C#N)c(Cl)c7)CC6)nn5)C4)C3)cc1)=NCc1nnc(C)n1-2 (stereo partly drawn) [I-473],–,–,–,< 0.5,> 3,< 0.5

Structure (SMILES),GI50 [1] [µM],GI50 [2] [µM],GI50 [3] [µM],"GI50 ([1]; Homo sapiens, VCaP, 72 h) [µM]",GI50 ([2]; 72 h) [µM],GI50 ([3]; 72 h) [µM]
Cc1sc2c(c1C)C(c1ccc(OC3CCC4(CCCN(c5ccc(C(=O)N[C@H]6CC[C@H](Oc7ccc(C#N)c(Cl)c7)CC6)nn5)C4)C3)cc1)=N[C@@H](C)c1nnc(C)n1-2 (stereo partly drawn) [I-537],> 3,> 3,< 0.5,–,–,–
Cc1sc2c(c1C)C(c1ccc(OC3CC4(C3)CC3(CCN(c5ccc(C(=O)N[C@H]6CC[C@H](Oc7ccc(C#N)c(Cl)c7)CC6)nn5)CC3)C4)cn1)=N[C@@H](C)c1nnc(C)n1-2 [I-465],–,–,–,< 0.5,> 3,< 0.5
"COCC[C@@H]1N=C(c2ccc(C3CCC4(CC3)CCN(c3ccc(C(=O)N[C@H]5CC[C@H](Oc6ccc(C#N)c(Cl)c6)CC5)nn3)C4)cc2)c2c(sc(C)c2C)-n2c(C)nnc21 (single isomer, unassigned) [I-619]",< 0.5,> 3,< 0.5,–,–,–
Cc1sc2c(c1C)C(c1ccccc1CC1CC3(CCCN(c4ccc(C(=O)N[C@H]5CC[C@H](Oc6ccc(C#N)c(Cl)c6)CC5)nn4)C3)C1)=N[C@@H](C)c1nnc(C)n1-2 (stereo partly drawn) [I-755],1.5 to 3,> 3,> 3,–,–,–
Cc1sc2c(c1C)C(c1ccccc1OC1CCC3(CC1)CCN(c1ccc(C(=O)N[C@H]4CC[C@H](Oc5ccc(C#N)c(Cl)c5)CC4)nn1)C3)=N[C@@H](C)c1nnc(C)n1-2 (stereo partly drawn) [I-752],–,–,–,< 0.5,< 0.5,< 0.5
"CC[C@@H]1N=C(c2ccc(C3CCC4(CC3)CCN(c3ccc(C(=O)N[C@H]5CC[C@H](Oc6ccc(C#N)c(Cl)c6)CC5)nn3)C4)cc2)c2c(sc(C)c2C)-n2c(C)nnc21 (single isomer, unassigned) [I-634]",< 0.5,0.5 to 1.5,< 0.5,–,–,–
Cc1sc2c(c1C)C(c1ccc(Cl)cc1)=N[C@@H](CC(=O)NCCCCCOC1CCN(c3ccc(C(=O)N[C@H]4CC[C@H](Oc5ccc(C#N)c(Cl)c5)CC4)nn3)CC1)c1nnc(C)n1-2 [I-5],–,–,–,< 0.5,< 0.5,< 0.5
Cc1sc2c(c1C)C(c1cccc(OC3CCC4(CCN(c5ccc(C(=O)N[C@H]6CC[C@H](Oc7ccc(C#N)c(Cl)c7)CC6)nn5)C4)C3)c1)=N[C@@H](C)c1nnc(C)n1-2 (stereo partly drawn) [I-749],< 0.5,0.5 to 1.5,< 0.5,–,–,–
CC[C@@H]1N=C(c2ccc(C#CC3CC4(C3)CN(c3ccc(C(=O)N[C@H]5CC[C@H](Oc6ccc(C#N)c(Cl)c6)CC5)nn3)C4)cc2)c2c(sc(C)c2C)-n2c(C)nnc21 [I-531],–,–,–,< 0.5,< 0.5,< 0.5
COC[C@@H]1N=C(c2ccc(CC3CC4(CCN(c5ccc(C(=O)N[C@H]6CC[C@H](Oc7ccc(C#N)c(Cl)c7)CC6)nn5)CC4)C3)cc2)c2c(sc(C)c2C)-n2c(C)nnc21 [I-692],–,–,–,< 0.5,< 0.5,< 0.5
Cc1sc2c(c1C)C(c1ccc(OC3CC4(C3)CC3(CCN(c5ccc(C(=O)N[C@H]6CC[C@H](Oc7ccc(C#N)c(Cl)c7)CC6)nn5)CC3)C4)cc1)=NC1(CC1)c1nnc(C)n1-2 [I-452],–,–,–,< 0.5,> 3,< 0.5
Cc1sc2c(c1C)C(c1ccc(C3CCC4(CC3)CCN(c3ccc(C(=O)N[C@H]5CC[C@H](Oc6ccc(C#N)c(Cl)c6)CC5)nn3)C4)cc1)=NC1(CC1)c1nnc(C)n1-2 (stereo partly drawn) [I-518],< 0.5,> 3,< 0.5,–,–,–
Cc1sc2c(c1C)C(c1ccc(OC3CCC4(C3)CN(c3ccc(C(=O)N[C@H]5CC[C@H](Oc6ccc(C#N)c(Cl)c6)CC5)nn3)CCO4)cc1)=N[C@@H](C)c1nnc(C)n1-2 (stereo partly drawn) [I-539],0.5 to 1.5,> 3,–,–,–,< 0.5
CCNC(=O)C[C@@H]1N=C(c2ccc(N(C)C3CN(c4ccc(C(=O)N[C@H]5CC[C@H](Oc6ccc(C#N)c(Cl)c6)CC5)nn4)C3)cc2)c2c(sc(C)c2C)-n2c(C)nnc21 [I-65],–,–,–,0.5 to 1.5,0.5 to 1.5,< 0.5
Cc1sc2c(c1C)C(c1ccc(OCC3CC4(CCCN(c5ccc(C(=O)N[C@H]6CC[C@H](Oc7ccc(C#N)c(Cl)c7)CC6)nn5)C4)C3)cc1)=NC1(CC1)c1nnc(C)n1-2 (stereo partly drawn) [I-471],1.5 to 3,> 3,< 0.5,–,–,–
CC[C@@H]1N=C(c2ccc(N3CCC(CCc4ccc(C(=O)N[C@H]5CC[C@H](Oc6ccc(C#N)c(Cl)c6)CC5)nn4)CC3)cc2)c2c(sc(C)c2C)-n2c(C)nnc21 [I-613],–,–,–,< 0.5,1.5 to 3,< 0.5
